Assay results taken from US8592451B2, “Reversible nondepolarizing neuromuscular blockade agents and methods for their use” (Cornell University, priority 2009, dated 2013).

Experiments:
[1] = system: twitch of the extensor digitorum; test: Reversal of neuromuscular blockade by L-cysteine or neostigmine in anesthetized rhesus monkeys; type: in vivo, rhesus monkeys (Macaca mulatta)
Experimental: A control dose of 0.15 mg/kg CW 002 was allowed to recover spontaneously to TOF 110-120%. A second dose was given 60 minutes later, followed one minute afterwards by either neostigmine (0.05 mg/kg+atropine 0.05 mg/kg) or L-cysteine (10, 20, 30 or 50 mg/kg). Total duration and 5-95% recovery intervals were compared during spontaneous recovery vs. antagonism by L-cysteine or reversal by neostigmine.
This series of paired comparisons was designed to generate dose-response data comparing spontaneous recovery of high doses of CW 011 (from 4 to 64× ED95) versus immediate antagonism at +1 min by an optimal dose of L-cysteine (50 mg/kg), previously determined during studies of immediate antagonism of CW 002. This experiment was done to explore the limits of chemical antagonism by L-cysteine of these olefinic diester neuromuscular blocking drugs, using CW 011 as a typical example with an intermediate duration of action. Five groups of animals first received a control dose of CW 011 at 4, 8, 16, 32 or 64× ED 95 (0.1 to 1.6 mg/kg). Sixty minutes after spontaneous recovery of the control dose to TOF 110-120%, the same dose was repeated, followed 1 min later by L-cysteine (50 mg/kg). Total duration of action and 5-95% recovery interval were compared during spontaneous recovery and following antagonism by L-cysteine
The reversal of neuromuscular blockade by cysteine (5-50 mg/kg i.v.) was studied. Reversal was tested as follows: full paralysis was induced by injection of a dose of approximately 2-6× ED 95 of the compound in question. After spontaneous recovery of this dose, a second identical dose was given 15-30 min later. Cysteine was then given at +1 min after injection of the neuromuscular blocking drug at a point where no twitch was apparent (“immediate reversal”) or at the beginning of recovery from neuromuscular blockade at two percent twitch height (“classical reversal”). Comparisons were made among compounds with respect to rapidity and ease of cysteine reversal, by comparing 5-95% recovery times, and total durations of action (injection to 95% twitch recovery). Spontaneous recovery was compared with cysteine-accelerated recovery. […]

[2] = L-cysteine adduction kinetics in vitro (HPLC); type: physicochemical; conditions: pH 7.4, 37° C.; for NMBA peak area / [NMBA] remaining / ln* = ln (([NMBA]t[L-cysteine]t=0)/([NMBA]t=0[L-cysteine]t)): gantacurium 200 μg/mL + L-cysteine
Experimental: In a second experiment, to evaluate degradation in the presence of L-cysteine, buffered solutions (pH 7.4) of gantacurium, CW 002 or CW 011 were freshly prepared at 37° C. to give experimental concentrations of 1000 μg/mL (CW 002 and CW 011) and 200 μg/mL (gantacurium), after addition to and mixing with a 5% Molar excess of L-cysteine at time=0.
The concentration of neuromuscular blocking agent/parent compound remaining at specified time points after mixing was determined by high performance liquid chromatography. The concentration of blocking agent at each time point was determined from a separately prepared reaction mixture, due to the rapid rate of L-cysteine adduction. The reaction rate constant for the second order reaction of each neuromuscular blockade agent (NMBA) with L-cysteine was derived by plotting the natural log of ([NMBA]t[L-cysteine]t=0/[NMBA]t=0[L-cysteine]t) vs. time.
Concentrations selected were 200, 100 and 50 μg/ml which are approximately proportional to the relative potencies (ED 95) of gantacurium, CW 002 and CW 011 respectively. A degradation (adduction) pathway in the presence of L-cysteine for each of the three compounds was proposed.
The reaction of L-cysteine with CW 002, CW 011 or gantacurium is first order in the case of both the neuromuscular blockade agent (NMBA) and L-cysteine, represented by the rate equation (1). d[Adduct]/dt=−d[NMBA]/dt=ka[NMBA][L-cysteine] (1)
Calculation of the L-cysteine adduction half time requires experimental derivation of the reaction rate constant, ka, for each compound. The initial concentrations of NMBA and L-cysteine are unequal in the experiments conducted for this study, thus integration of equation 1 gives equation 2, where [NMBA]0 is the NMBA concentration at time equals 0 and [NMBA]t is the NMBA concentration at a time point, t.
[formula] A plot of the ln(([NMBA]t [L-cysteine]0)/([NMBA]0 [L-cysteine]t)) versus time (ln* vs. t) gives a line, with slope equal to ka([NMBA]0−[L-cysteine]0). An adduction reaction half time can be calculated by solving for ka to be used in equation 3.
NMBA standard solutions were prepared by a method similar to that used to prepare hydrolysis standards. The standards were prepared at 1000 μg/mL for CW 002 and CW 011 and 200 μg/mL for gantacurium.
Solutions used for determination of NMBA concentration at the reported times for CW 002 and CW 011 were prepared as follows: L-cysteine hydrochloride monohydrate was charged to a volumetric flask in de-ionized water. A 5 mL aliquot of the L-cysteine solution (1.05 equiv. L-cysteine with respect to NMBA) was transferred by volumetric pipette to a flask held at 37.0±0.3° C. CW 002 or CW 011 was then charged to a separate 25 mL volumetric flask and diluted to volume with pH 7.4 phosphate buffer at 37.0° C. The NMBA solution was then immediately transferred to the flask containing L-cysteine to give an initial NMBA concentration of 1000 μg/mL. Solutions used for determination of gantacurium concentration versus time were prepared in a similar manner to give an initial concentration of 200 μg/mL. T=0 was defined as the time of addition of NMBA solution to L-cysteine solution. The times listed in the results table show the point of HPLC sample injection following mixing of L-cysteine and NMBA at time=0 (Table 1, below).
Rate constants were calculated using equation (3) and the slope of the trend line derived from each data set. The strong linear correlation of the data within each set supports the use of second order kinetics for analysis of the cysteine adduction reactions.
Reaction half times were calculated using equation 4 and the experimentally determined rate constants. The initial NMBA concentrations were chosen to reflect the relative potency observed in vivo.

[3] = system: twitch of the extensor digitorum; test: Neuromuscular blocking potency and duration in anesthetized rhesus monkeys; type: in vivo, rhesus monkeys (Macaca mulatta)
Experimental: Experiments were approved by the Institutional Animal Care and Use Committee of Weill Medical College of Cornell University (New York, N.Y.) and of Albany Medical College (Albany, N.Y.), where the studies were conducted. A colony of 10 adult male monkeys (Macaca mulatta) weighing 8-18 kg was studied at ˜6 week intervals. Animals were housed and cared for in accordance with the Guide for Care and Use of Laboratory Animals (National Research Council, Washington, D.C.). They were fed a standard Old World monkey diet, enriched with fruits and vegetables, and other dietary novelties and were followed throughout the study to verify normal health by physical examination, body weight, and clinical laboratory studies (Complete Blood Count, Blood Urea Nitrogen and creatinine, and liver function tests).
On the day of each study, monkeys received ketamine (7-10 mg/kg i.m.) followed by tracheal intubation under topical anesthesia with 4% lidocaine. Ventilation was controlled at 10 mL/kg and 20 breaths/min with isoflurane (1.0-2.0%) and N2O/O2 (2:1 mixture). Ringers lactate was administered at ˜10 ml kg^−1 h^−1. Arterial pressure was monitored from a femoral, superficial tibial, or radial (22 gauge) cannula. Heart rate was measured by tachograph from the arterial pulse wave. Core temperature was kept at 36.5-38.0° C. by warming blankets. Electrocardiogram and pulse oximetry were monitored continuously.
Needle electrodes (25 gauge) transmitting square-wave pulses of 0.2 msec duration at supramaximal voltage which were generated by a Grass S-88 stimulator (Grass Instruments, Quincy, Mass.) were placed at the peroneal nerve at the knee to elicit twitch responses of the extensor digitorum of the foot at 0.15 Hz. A small slip (10-20%) of the tendon was dissected free under sterile technique and tied to a Grass FT 10 force transducer (Grass Instruments, Quincy, Mass.) at a baseline tension of 50 gm. Train-of four stimulation (TOF, 2 Hz for 2 sec) was interposed at appropriate points, especially 1-2 min prior to NMBA dosing and following recovery of twitch to 95% of baseline, where TOF was subsequently evaluated every 1-2 min.
Recordings of circulatory and neuromuscular data were made on a Grass 7B polygraph (Grass Instruments). A baseline period of 15-20 min was allowed for stabilization of recordings prior to dosing.^2
Dose-response curves for twitch blockade by gantacurium, CW 002, CW 011, cisatracurium, CW002-Cys, NB 938-69, NB 1064-81, NB 802-17 (CW 001), NB 832-65, and NB 1163-79, structures of which are all shown above, were generated as follows. […] Successive doses were separated by at least three estimated half lives beyond complete recovery of the previous dose to TOF of 110-120%, which is normal for these monkeys. Only the first one or two doses yielding 5 to 99% blockade were included from any single experiment for computation of dose-response data.
Comparative studies of spontaneous recovery versus antagonism/reversal were done at least 3 estimated half-lives following dose-response studies.
ED 50 and ED 95 were computed from the regression of log dose vs. the logit of percentage blockade of twitch.
CW002-Cys, the L-cysteine adduct of CW 002, was available in limited quantity and was administered in cumulative fashion to three animals to compare approximate potency and duration of effect versus its parent compound CW 002.

SMILES	effect of neostigmine given immediately after the blocking drug ([1]; immediate reversal)	classical antagonism of neuromuscular blockade by neostigmine ([1]; neostigmine given at beginning of spontaneous recovery, e.g. at 2% twitch height)	Plot Slope (ln* vs. time) ([2]; L-cysteine adduction, data of Table 1)	NMBA peak area ([2]; Trial 1, 59 Sec)	[NMBA] remaining ([2]; Trial 1, 59 Sec)	ln* = ln (([NMBA]t[L-cysteine]t=0)/([NMBA]t=0[L-cysteine]t)) ([2]; Trial 1, 59 Sec)	NMBA peak area ([2]; Trial 2, 67 Sec)	[NMBA] remaining ([2]; Trial 2, 67 Sec)	ln* = ln (([NMBA]t[L-cysteine]t=0)/([NMBA]t=0[L-cysteine]t)) ([2]; Trial 2, 67 Sec)	NMBA peak area ([2]; Trial 3, 70 Sec)	[NMBA] remaining ([2]; Trial 3, 70 Sec)	ln* = ln (([NMBA]t[L-cysteine]t=0)/([NMBA]t=0[L-cysteine]t)) ([2]; Trial 3, 70 Sec)	NMBA peak area ([2]; Trial 4, 78 Sec)	[NMBA] remaining ([2]; Trial 4, 78 Sec)	ln* = ln (([NMBA]t[L-cysteine]t=0)/([NMBA]t=0[L-cysteine]t)) ([2]; Trial 4, 78 Sec)	ka, second order rate constant of L-cysteine adduction [2]	half-life at 200 μg/ml ([2]; pH 7.4 buffered solution with L-cysteine, calculated at [NMBA]0 0.000188 M (200 μg/ml), read-out: L-cysteine adduction reaction half time t1/2)	Duration (± SD/SEM), from injection to recovery of twitch to 95% of baseline ([3]; administered dose 0.04 mg/kg, spontaneous recovery)	ED 95 (± SD/SEM) ([3]; twitch blockade, monkeys under isoflurane, twitch at 0.15 Hz, calculated from dose-response curve)
COc1cc2c(cc1OC)[C@H](c1cc(OC)c(OC)c(OC)c1)[N@@+](C)(CCCOC(=O)/C=C(\Cl)C(=O)OCCC[N@+]1(C)CCc3cc(OC)c(OC)cc3[C@H]1Cc1cc(OC)c(OC)c(OC)c1)CC2 [Gantacurium, reference compound]	ineffective	showed antagonism	−0.0145	476.7 mAU's	33 µM	−0.46	384.2 mAU's	27 µM	−0.56	344.2 mAU's	24 µM	−0.62	281.5 mAU's	20 µM	−0.73	529.6 M⁻¹ s⁻¹	12 s		
COc1ccc(C[C@@H]2c3cc(OC)c(OC)cc3CC[N@@+]2(C)CCCOC(=O)CCC(=O)OCCC[N@+]2(C)CCc3cc(OC)c(OC)cc3[C@H]2Cc2ccc(OC)c(OC)c2)cc1OC [NB 1163-79]																		27.2 ± 2.6 min	0.032 ± 0.003 mg/kg
